Data taken from US20240116985A1, “STAPLED PEPTIDES AND METHODS THEREOF” (priority 2020, published 2024).
Like-named read-outs stand apart in the source and are kept apart here.

Target: T1, full-length beta-Catenin (Uniprot ID P35222) (Homo sapiens, UniProt P35222)
T1 construct: 10 nM full-length beta-Catenin (Uniprot ID P35222)
T1 sequence (P35222 1-781): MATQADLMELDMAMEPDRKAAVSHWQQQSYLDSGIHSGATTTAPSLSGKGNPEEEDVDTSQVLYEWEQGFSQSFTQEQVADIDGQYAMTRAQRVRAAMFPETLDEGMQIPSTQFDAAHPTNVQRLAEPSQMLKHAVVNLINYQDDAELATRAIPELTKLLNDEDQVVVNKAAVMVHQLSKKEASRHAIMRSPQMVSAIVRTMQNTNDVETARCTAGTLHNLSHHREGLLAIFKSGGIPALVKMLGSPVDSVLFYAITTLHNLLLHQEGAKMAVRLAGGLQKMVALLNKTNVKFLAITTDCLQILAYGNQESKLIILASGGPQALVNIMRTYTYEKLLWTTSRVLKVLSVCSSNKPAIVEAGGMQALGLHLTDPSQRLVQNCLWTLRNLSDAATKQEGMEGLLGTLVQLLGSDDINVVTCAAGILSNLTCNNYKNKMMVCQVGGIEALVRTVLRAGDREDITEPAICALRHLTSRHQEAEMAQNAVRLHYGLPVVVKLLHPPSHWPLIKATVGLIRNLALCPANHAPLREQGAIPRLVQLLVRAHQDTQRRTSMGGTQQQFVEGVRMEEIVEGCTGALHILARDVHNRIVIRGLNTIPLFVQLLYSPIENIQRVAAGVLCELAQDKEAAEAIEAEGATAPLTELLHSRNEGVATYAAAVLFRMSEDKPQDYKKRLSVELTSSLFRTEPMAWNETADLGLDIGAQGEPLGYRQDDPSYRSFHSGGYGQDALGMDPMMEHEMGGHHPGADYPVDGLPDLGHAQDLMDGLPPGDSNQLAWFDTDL
Assay: Fluorescence polarization IC50 (beta-catenin / 5FAM-TCF4 10-53 competition)
Assay type: binding

[1] = fluorescence polarization, read-out: beta-Catenin FP IC50

SMILES	IC50 [1] [nM]	IC50 (beta-Catenin FP IC50, fluorescence polarization) [nM]
CC(=O)N1CCC[C@]12CC=CCCCC1(CCCC=CCCCOC(=O)N3CC[C@@](C(=O)N[C@@H](Cc4ccsc4)C(=O)N[C@@H](Cc4csc5ccccc45)C(=O)N[C@@H](CCC(N)=O)C(N)=O)(C3)NC(=O)[C@H](CC(C)C)NC(=O)[C@H](Cc3ccccc3)NC(=O)[C@H](C)NC(=O)[C@H](C)NC(=O)[C@H](CC(=O)O)NC(=O)[C@H](CC(=O)O)NC1=O)NC(=O)[C@H](CC(C)(C)C)NC(=O)[C@H](CCC(N)=O)NC2=O (stereo partly drawn) [I-1225, Ac-PL3-Gln-Npg-B5-Asp-Asp-Ala-Ala-Phe-Leu-PyrS2-3Thi-BztA-Gln-NH2]	305	–
CC(=O)N1CCC[C@]12CC=CCCCC1(CCCC=CCCCOC(=O)N3CC[C@@](C(=O)N[C@@H](Cc4ccsc4)C(=O)N[C@@H](Cc4csc5ccccc45)C(=O)N[C@@H](CC(C)C)C(N)=O)(C3)NC(=O)[C@H](CC(C)C)NC(=O)[C@H](Cc3ccccc3)NC(=O)[C@H](C)NC(=O)[C@H](C)NC(=O)[C@H](CC(=O)O)NC(=O)[C@H](CC(=O)O)NC1=O)NC(=O)[C@H](CC(N)=O)NC(=O)[C@H](CC(=O)O)NC2=O (stereo partly drawn) [I-1413, Ac-PL3-Asp-Asn-B5-Asp-Asp-Ala-Ala-Phe-Leu-PyrS2-3Thi-BztA-Leu-NH2]	–	74
CC(=O)N1CCC[C@]12CC=CCCC1(CCC=CCCCOC(=O)N3CC[C@@](C(=O)N[C@@H](Cc4ccsc4)C(=O)N[C@@H](Cc4csc5ccccc45)C(=O)N[C@@H](CCC(N)=O)C(N)=O)(C3)NC(=O)[C@H](CC(C)C)NC(=O)[C@H](Cc3ccccc3)NC(=O)[C@H](C)NC(=O)[C@H](C)NC(=O)[C@H](CC(=O)O)NC(=O)[C@H](CC(=O)O)NC1=O)NC(=O)[C@H](CC(C)(C)C)NC(=O)[C@H](CC(=O)O)NC2=O (stereo partly drawn) [I-1972, Ac-PL3-Asp-Npg-B4-Asp-Asp-Ala-Ala-Phe-Leu-PyrS2-3Thi-BztA-Gln-NH2]	689	–
CC(=O)N1CCC[C@]12CC=CCCCC1(CCCC=CCCCOC(=O)N3CC[C@@](C(=O)N[C@@H](Cc4ccsc4)C(=O)N[C@@H](Cc4csc5ccccc45)C(=O)N[C@@H](CCC(=O)N4CCC(N5CCCCC5)CC4)C(N)=O)(C3)NC(=O)[C@H](CC(C)C)NC(=O)[C@H](Cc3ccccc3)NC(=O)[C@H](C)NC(=O)[C@H](C)NC(=O)[C@H](CN(CC(=O)O)CC(F)(F)F)NC(=O)[C@H](CC(=O)O)NC1=O)NC(=O)[C@H](CC(C)(C)C)NC(=O)[C@H](CC(=O)O)NC2=O (stereo partly drawn) [I-1798, Ac-PL3-Asp-Npg-B5-Asp-TfeGA-Ala-Ala-Phe-Leu-PyrS2-3Thi-BztA-[4Pippip]GlnR-NH2]	12	–
CCNC(=O)CC[C@H](NC(=O)[C@H](Cc1csc2ccccc12)NC(=O)[C@H](Cc1ccccc1C(F)(F)F)NC(=O)[C@]12CCN(C1)C(=O)OCCCC=CCCCC1(CCCC=CC[C@]3(CCCN3C(C)=O)C(=O)N[C@@H](CC(=O)O)C(=O)N[C@@H](CC(C)(C)C)C(=O)N1)C(=O)N[C@@H](CC(=O)O)C(=O)N[C@@H](Cc1cccc(C(=O)O)c1)C(=O)N[C@@H](C)C(=O)N[C@@H](C)C(=O)N[C@@H](Cc1ccccc1)C(=O)N[C@@H](CC(C)C)C(=O)N2)C(=O)N[C@@H](C)C(N)=O (stereo partly drawn) [I-2470, Ac-PL3-Asp-Npg-B5-Asp-3COOHF-Ala-Ala-Phe-Leu-PyrS2-2F3MeF-BztA-NHEt]GlnR-Ala-NH2]	24	–
COC(=O)N1CCC[C@]12CC=CCCCC1(CCCC=CCCCOC(=O)N3CC[C@@](C(=O)N[C@@H](Cc4ccccc4Cl)C(=O)N[C@@H](Cc4csc5ccccc45)C(=O)N[C@@H](C)C(N)=O)(C3)NC(=O)[C@H](CC(C)C)NC(=O)[C@H](Cc3ccccc3)NC(=O)[C@H](C)NC(=O)[C@H](C)NC(=O)[C@H](Cc3cccc(C(=O)O)c3)NC(=O)[C@H](CC(=O)O)NC1=O)NC(=O)[C@H](CC(C)(C)C)NC(=O)[C@H](CC(=O)O)NC2=O (stereo partly drawn) [I-2324, CO2Me-PL3-Asp-Npg-B5-Asp-3COOHF-Ala-Ala-Phe-Leu-PyrS2-2C1F-BztA-Ala-NH2]	83	–
CC(=O)N1CCC[C@]12CCCCCCC1(CCCCCCCCOC(=O)N3CC[C@@](C(=O)N[C@@H](Cc4ccsc4)C(=O)N[C@@H](Cc4csc5ccccc45)C(=O)N[C@H](C(N)=O)C(C)C)(C3)NC(=O)[C@H](CC(C)C)NC(=O)[C@H](Cc3ccccc3)NC(=O)[C@H](C)NC(=O)[C@H](CCCCNC(C)C)NC(=O)[C@H](CN(CC(=O)O)CC(F)(F)F)NC(=O)[C@H](CC(=O)O)NC1=O)NC(=O)[C@H](CC(C)(C)C)NC(=O)[C@H](CC(=O)O)NC2=O (stereo partly drawn) [I-1769, Ac-PL3-Asp-Npg-B5-Asp-TfeGA-iPrLys-Ala-Phe-Leu-PyrS2-3Thi-BztA-Val-NH2]	419	–
CC(=O)N1CCC[C@]12CC=CCCCC1(CCCC=CCCCOC(=O)N3CC[C@@](C(=O)N[C@@H](Cc4ccccc4)C(=O)N[C@@H](Cc4csc5ccccc45)C(=O)N[C@@H](CCC(N)=O)C(N)=O)(C3)NC(=O)[C@H](Cc3c[nH]cn3)NC(=O)[C@H](Cc3ccccc3)NC(=O)[C@H](C)NC(=O)[C@H](C)NC(=O)[C@H](CCC(N)=O)NC(=O)[C@H](CC(=O)O)NC1=O)NC(=O)[C@H](CC(C)(C)C)NC(=O)[C@H](CC(N)=O)NC2=O (stereo partly drawn) [I-2440, Ac-PL3-Asn-Npg-B5-Asp-Gln-Ala-Ala-Phe-His-PyrS2-Phe-BztA-Gln-NH2]	360	–
CC(=O)N1CCC[C@]12CC=CCCCC1(CCCC=CCCCOC(=O)N3CC[C@@](C(=O)N[C@@H](Cc4ccsc4)C(=O)N[C@@H](Cc4csc5ccccc45)C(=O)N[C@@H](CCC(N)=O)C(N)=O)(C3)NC(=O)[C@H](CC(N)=O)NC(=O)[C@H](Cc3ccccc3)NC(=O)[C@H](C)NC(=O)[C@H](C)NC(=O)[C@H](CC(=O)O)NC(=O)[C@H](CC(=O)O)NC1=O)NC(=O)[C@H](CC(C)(C)C)NC(=O)[C@H](CO)NC2=O (stereo partly drawn) [I-1222, Ac-PL3-Ser-Npg-B5-Asp-Asp-Ala-Ala-Phe-Asn-PyrS2-3Thi-BztA-Gln-NH2]	511	–
CC(C)C[C@@H]1NC(=O)[C@H](Cc2ccccc2)NC(=O)[C@H](C)NC(=O)[C@H](C)NC(=O)[C@H](CN(CC(=O)O)CC(F)(F)F)NC(=O)[C@H](CC(=O)O)NC(=O)C2(CCCC=CCCCOC(=O)N3CC[C@@](C(=O)N[C@@H](Cc4ccsc4)C(=O)N[C@@H](Cc4csc5ccccc45)C(=O)N[C@@H](CCC(N)=O)C(N)=O)(C3)NC1=O)CCCC=CCS(=O)(=O)N1CCC[C@@H]1C(=O)N[C@@H](CC(=O)O)C(=O)N[C@@H](CC(C)(C)C)C(=O)N2 (stereo partly drawn) [I-2266, ProSAm3-Asp-Npg-B5-Asp-TfeGA-Ala-Ala-Phe-Leu-PyrS2-3Thi-BztA-Gln-NH2]	266	–
CC(=O)N1CCC[C@]12CC=CCCCC1(CCCC=CCCCOC(=O)N3CC[C@@](C(=O)N[C@@H](Cc4ccsc4)C(=O)N[C@@H](Cc4cccc5ccccc45)C(=O)N[C@@H](CCC(N)=O)C(N)=O)(C3)NC(=O)[C@H](CC(N)=O)NC(=O)[C@H](Cc3ccccc3)NC(=O)[C@H](C)NC(=O)[C@H](C)NC(=O)[C@H]([C@@H](C)O)NC(=O)[C@H](CC(N)=O)NC1=O)NC(=O)[C@H](CC(C)(C)C)NC(=O)[C@H](CC(=O)O)NC2=O (stereo partly drawn) [I-1870, Ac-PL3-Asp-Npg-B5-Asn-Thr-Ala-Ala-Phe-Asn-PyrS2-3Thi-1NapA-Gln-NH2]	1520	–
CC(=O)N1CCC[C@]12CC=CCCCC1(CCCC=CCCCOC(=O)N3CC[C@@](C(=O)N[C@@H](Cc4ccsc4)C(=O)N[C@@H](Cc4csc5ccccc45)C(=O)N[C@@H](CCC(N)=O)C(N)=O)(C3)NC(=O)[C@H](CC(C)C)NC(=O)[C@H](Cc3ccccc3)NC(=O)[C@H](C)NC(=O)[C@H](C)NC(=O)[C@H](CN(CC(=O)O)C(=O)c3ccc(CN4CCOCC4)cc3)NC(=O)[C@H](CC(=O)O)NC1=O)NC(=O)[C@H](CC(C)(C)C)NC(=O)[C@H](CC(=O)O)NC2=O (stereo partly drawn) [I-2238, Ac-PL3-Asp-Npg-B5-Asp-[MeMorphBz]GA-Ala-Ala-Phe-Leu-PyrS2-3Thi-BztA-Gln-NH2]	11	–
CC(=O)N1CCC[C@]12CC=CCCCC1(CCCC=CCCCOC(=O)N3CC[C@@](C(=O)N[C@@H](Cc4ccsc4)C(=O)N[C@@H](Cc4csc5ccccc45)C(=O)N[C@@H](CCC(N)=O)C(N)=O)(C3)NC(=O)[C@H](CC(C)C)NC(=O)[C@H](Cc3ccccc3)NC(=O)[C@H](C)NC(=O)[C@H](C)NC(=O)[C@H](CC(=O)O)NC(=O)[C@H](CC(=O)O)NC1=O)NC(=O)[C@H](Cc1ccccc1)NC(=O)[C@H](CC(=O)O)NC2=O (stereo partly drawn) [I-1509, Ac-PL3-Asp-Phe-B5-Asp-Asp-Ala-Ala-Phe-Leu-PyrS2-3Thi-BztA-Gln-NH2]	11	–
CC(=O)N1CCC[C@]12CC=CCCCC1(CCCC=CCCCCCC[C@@](C)(C(=O)N[C@@H](Cc3ccsc3)C(=O)N[C@@H](Cc3csc4ccccc34)C(=O)N[C@@H](CCC(N)=O)C(N)=O)NC(=O)[C@H](CC(N)=O)NC(=O)[C@H](Cc3ccccc3)NC(=O)[C@H](C)NC(=O)[C@H](C)NC(=O)[C@H](CC(=O)O)NC(=O)[C@H](CC(=O)O)NC1=O)NC(=O)[C@H](CC(C)(C)C)NC(=O)[C@H](CC(=O)O)N(C)C2=O (stereo partly drawn) [I-1165, Ac-PL3-NMeD-Npg-B5-Asp-Asp-Ala-Ala-Phe-Asn-S8-3Thi-BztA-Gln-NH2]	722	–
